In ChEMBL document CHEMBL1781990, “Synthesis and pharmacological activity of O-aminoalkyl derivatives of 7-hydroxycoumarin” (2011):
In brackets after ≈: the same amount, converted by molar mass. Activity calls are given as the source filed them. The calls are words filed in the database; no cut-off is given here.

Experiments:
Bacillus cereus [1] = test: Antibacterial against Bacillus cereus ATCC 11778 after 24 hrs by NCCLS M7-A6 method; assay type: functional
Micrococcus luteus [2] = test: Antibacterial against Micrococcus luteus ATCC 9341 after 24 hrs by NCCLS M7-A6 method; assay type: functional
Staphylococcus aureus [3] = test: Antibacterial against Staphylococcus aureus ATCC 6538P after 24 hrs by NCCLS M7-A6 method; assay type: functional
Staphylococcus aureus [4] = test: Antibacterial against Staphylococcus aureus ATCC 6538 at 20 mg/mL after 24 hrs by NCCLS M7-A6 method; assay type: functional, organism-based
Escherichia coli [5] = test: Antibacterial against Escherichia coli ATCC 10536 after 24 hrs by NCCLS M7-A6 method; assay type: functional; details: ATCC 10536, 24 h
Bacillus subtilis [6] = test: Antibacterial against Bacillus subtilis ATCC 6633 after 24 hrs by NCCLS M7-A6 method; assay type: functional
Staphylococcus aureus [7] = test: Antibacterial against Staphylococcus aureus ATCC 6538P at 20 mg/mL after 24 hrs by NCCLS M7-A6 method; assay type: functional, organism-based
Escherichia coli [8] = test: Antibacterial against Escherichia coli ATCC 8739 at 20 mg/mL after 24 hrs by NCCLS M7-A6 method; assay type: functional, organism-based
Escherichia coli [9] = test: Antibacterial against Escherichia coli ATCC 10536 at 20 mg/mL after 24 hrs by NCCLS M7-A6 method; assay type: functional, organism-based
Staphylococcus aureus [10] = test: Antibacterial against Staphylococcus aureus ATCC 6538 after 24 hrs by NCCLS M7-A6 method; assay type: functional; details: ATCC 6538, 24 h
Bacillus subtilis [11] = test: Antibacterial against Bacillus subtilis ATCC 6633 at 20 mg/mL after 24 hrs by NCCLS M7-A6 method; assay type: functional, organism-based
Micrococcus luteus [12] = test: Antibacterial against Micrococcus luteus ATCC 9341 at 20 mg/mL after 24 hrs by NCCLS M7-A6 method; assay type: functional, organism-based
Bacillus cereus [13] = test: Antibacterial against Bacillus cereus ATCC 11778 at 20 mg/mL after 24 hrs by NCCLS M7-A6 method; assay type: functional, organism-based
Micrococcus luteus [14] = test: Antibacterial against Micrococcus luteus ATCC 10240 at 20 mg/mL after 24 hrs by NCCLS M7-A6 method; assay type: functional, organism-based
HL-60 = test: Cytotoxicity against human HL60 cells assessed as cell growth inhibition at 10^-5 M; assay type: functional, cell-based
786-0 = test: Cytotoxicity against human 786-0 cells assessed as cell growth inhibition at 10^-5 M; assay type: functional, cell-based
[15] = Bacillus cereus, ATCC 11778, 24 h, read-out: MIC
[16] = Micrococcus luteus, ATCC 9341, 24 h, read-out: MIC
[17] = Bacillus subtilis, ATCC 6633, 24 h, read-out: MIC

Compound	MIC (Bacillus cereus [1]; [15]) [mM]	MIC (Micrococcus luteus [2]; [16]) [mM]	MIC (Staphylococcus aureus [3]) [mM]	Activity (Staphylococcus aureus [4])	MIC (Escherichia coli [5]) [mM]	MIC (Bacillus subtilis [6]; [17]) [mM]	Activity (Staphylococcus aureus [7])	Activity (Escherichia coli [8])	Activity (Escherichia coli [9])	MIC (Staphylococcus aureus [10]) [mM]	other results
Cc1cc(=O)oc2cc(OCCN3CCOCC3)ccc12	69.1 (≈ 20000 µg/mL)	8.6 (≈ 2490 µg/mL)	69.1 (≈ 20000 µg/mL)	inactive	51.8 (≈ 15000 µg/mL)	69.1 (≈ 20000 µg/mL)	–	–	–	–	–
CCN(CC)CCOc1ccc2c(C)cc(=O)oc2c1C(C)=O.Cl	–	–	–	–	–	–	–	–	–	–	MIC (Micrococcus luteus [2]): 3.5 mM
CC(=O)c1c(O)ccc2c(C)cc(=O)oc12	22.9 (≈ 5000 µg/mL)	68.7 (≈ 15000 µg/mL)	–	–	–	45.8 (≈ 9990 µg/mL)	inactive	inactive	inactive	68.7 (≈ 15000 µg/mL)	–
Cc1cc(=O)oc2cc(OCCN3CCCCC3C)ccc12 (centres undefined)	28.8 (≈ 8680 µg/mL)	14.4 (≈ 4340 µg/mL)	28.8 (≈ 8680 µg/mL)	–	14.4 (≈ 4340 µg/mL)	14.4 (≈ 4340 µg/mL)	–	–	–	43.2 (≈ 13000 µg/mL)	–
CCN(CC)CCOc1cc2oc(=O)cc(C)c2cc1C(C)=O [listing 1 of 2 here]	–	–	–	–	–	–	–	–	–	–	MIC (Bacillus cereus [1]): 63 mM (≈ 20000 µg/mL); MIC (Micrococcus luteus [2]): 31.5 mM (≈ 10000 µg/mL); MIC (Bacillus subtilis [6]): 31.5 mM (≈ 10000 µg/mL)
CCN(CC)CCOc1ccc2c(C)cc(=O)oc2c1C(C)=O [listing 1 of 2 here]	3.9 (≈ 1240 µg/mL)	2 (≈ 635 µg/mL)	3.9 (≈ 1240 µg/mL)	–	–	3.9 (≈ 1240 µg/mL)	–	–	–	3.9 (≈ 1240 µg/mL)	–
CC(=O)c1c(OCCN(C)Cc2ccccc2)ccc2c(C)cc(=O)oc12	2.4 (≈ 877 µg/mL)	6 (≈ 2190 µg/mL)	23.8 (≈ 8700 µg/mL)	–	35.7 (≈ 13000 µg/mL)	2.4 (≈ 877 µg/mL)	–	inactive	–	35.7 (≈ 13000 µg/mL)	–
O=c1ccc2ccc(O)cc2o1	–	–	–	inactive	–	–	inactive	inactive	inactive	–	Activity (Bacillus subtilis [11]): inactive; Activity (Micrococcus luteus [12]): inactive; Activity (Bacillus cereus [13]): inactive; Activity (Micrococcus luteus [14]): inactive
CC(=O)c1c(OCCN2CCCCC2)ccc2c(C)cc(=O)oc12	26.1 (≈ 8600 µg/mL)	6.5 (≈ 2140 µg/mL)	39.1 (≈ 12900 µg/mL)	–	13 (≈ 4280 µg/mL)	39.1 (≈ 12900 µg/mL)	–	–	–	39.1 (≈ 12900 µg/mL)	–
Cc1cc(=O)oc2cc(O)ccc12 [HYMECROMONE]	85.1 (≈ 15000 µg/mL)	–	–	inactive	–	–	inactive	inactive	inactive	–	Activity (Bacillus subtilis [11]): inactive; Activity (Micrococcus luteus [12]): inactive; Activity (Micrococcus luteus [14]): inactive
CC(=O)c1cc2c(C)cc(=O)oc2cc1OCCN(C)Cc1ccccc1	24.3 (≈ 8880 µg/mL)	1.5 (≈ 548 µg/mL)	24.3 (≈ 8880 µg/mL)	–	24.3 (≈ 8880 µg/mL)	24.3 (≈ 8880 µg/mL)	–	–	–	24.3 (≈ 8880 µg/mL)	–
CC1CCCCN1CCOc1ccc2ccc(=O)oc2c1 (centres undefined)	30.9 (≈ 8880 µg/mL)	15.4 (≈ 4430 µg/mL)	61.8 (≈ 17800 µg/mL)	–	30.9 (≈ 8880 µg/mL)	30.9 (≈ 8880 µg/mL)	–	–	–	46.3 (≈ 13300 µg/mL)	–
C[N+](C)(CCOc1ccc2ccc(=O)oc2c1)Cc1ccccc1	21.2	1.4	21.2	–	21.2	21.9	–	–	–	21.2	–
CC(=O)c1c(OCCN(C(C)C)C(C)C)ccc2c(C)cc(=O)oc12	–	25 (≈ 8640 µg/mL)	–	inactive	–	–	inactive	inactive	inactive	–	Activity (Bacillus subtilis [11]): inactive; Activity (Bacillus cereus [13]): inactive; Activity (Micrococcus luteus [14]): inactive
O=c1ccc2ccc(OCCN3CCOCC3)cc2o1	72.6 (≈ 20000 µg/mL)	18.2 (≈ 5010 µg/mL)	36.3 (≈ 9990 µg/mL)	–	36.3 (≈ 9990 µg/mL)	72.6 (≈ 20000 µg/mL)	–	–	–	72.6 (≈ 20000 µg/mL)	–
CC(=O)c1c(OCCN2CCCCC2C)ccc2c(C)cc(=O)oc12 (centres undefined)	24.6 (≈ 8450 µg/mL)	12.3 (≈ 4220 µg/mL)	24.6 (≈ 8450 µg/mL)	–	49.2 (≈ 16900 µg/mL)	24.6 (≈ 8450 µg/mL)	–	–	–	24.6 (≈ 8450 µg/mL)	growth inhibition (GI) (HL-60): Active; growth inhibition (GI) (786-0): Active
CC(=O)c1cc2c(C)cc(=O)oc2cc1OCCN1CCCCC1C (centres undefined)	1.6 (≈ 549 µg/mL)	6.6 (≈ 2270 µg/mL)	26.3 (≈ 9030 µg/mL)	–	26.3 (≈ 9030 µg/mL)	1.6 (≈ 549 µg/mL)	–	inactive	–	26.3 (≈ 9030 µg/mL)	–
CCN(CC)CCOc1cc2oc(=O)cc(C)c2cc1C(C)=O [listing 2 of 2 here]	–	–	–	inactive	–	–	inactive	inactive	inactive	–	–
CCN(CC)CCOc1cc2oc(=O)cc(C)c2cc1C(C)=O.Cl	–	–	7.1	–	7.1	–	–	–	–	7.1	MIC (Bacillus cereus [1]): 0.4 mM; MIC (Micrococcus luteus [2]): 1.8 mM; MIC (Bacillus subtilis [6]): 0.4 mM
CC(C)N(CCOc1ccc2ccc(=O)oc2c1)C(C)C	30.7 (≈ 8880 µg/mL)	46 (≈ 13300 µg/mL)	61.4 (≈ 17800 µg/mL)	inactive	46 (≈ 13300 µg/mL)	46 (≈ 13300 µg/mL)	–	–	–	–	–
CC(=O)c1cc2c(C)cc(=O)oc2cc1O	4.6 (≈ 1000 µg/mL)	45.8 (≈ 9990 µg/mL)	–	–	–	22.9 (≈ 5000 µg/mL)	inactive	inactive	inactive	45.8 (≈ 9990 µg/mL)	–
Cc1cc(=O)oc2cc(OCCN(C)Cc3ccccc3)ccc12	–	40.7 (≈ 13200 µg/mL)	–	inactive	–	–	inactive	inactive	inactive	–	Activity (Bacillus subtilis [11]): inactive; Activity (Bacillus cereus [13]): inactive
Cc1cc(=O)oc2cc(OCC[N+]3(C)CCCCC3C)ccc12 (centres undefined)	45.1	22.6	–	inactive	–	22.6	inactive	inactive	inactive	–	–
CCN(CC)CCOc1ccc2ccc(=O)oc2c1	8.4 (≈ 2200 µg/mL)	8.4 (≈ 2200 µg/mL)	67.2 (≈ 17600 µg/mL)	inactive	16.8 (≈ 4390 µg/mL)	8.4 (≈ 2200 µg/mL)	–	–	–	–	–
CC(=O)c1cc2c(C)cc(=O)oc2cc1OCCN1CCCCC1	1.7 (≈ 560 µg/mL)	1.7 (≈ 560 µg/mL)	6.7 (≈ 2210 µg/mL)	–	13.3 (≈ 4380 µg/mL)	1.7 (≈ 560 µg/mL)	–	–	–	13.3 (≈ 4380 µg/mL)	–
CCN(CC)CCOc1ccc2c(C)cc(=O)oc2c1C(C)=O [listing 2 of 2 here]	–	–	–	inactive	–	–	inactive	inactive	inactive	–	Activity (Bacillus subtilis [11]): inactive; Activity (Bacillus cereus [13]): inactive
CCN(CC)CCOc1ccc2c(C)cc(=O)oc2c1	2 (≈ 551 µg/mL)	2 (≈ 551 µg/mL)	32.1 (≈ 8840 µg/mL)	–	8 (≈ 2200 µg/mL)	2 (≈ 551 µg/mL)	–	–	–	32.1 (≈ 8840 µg/mL)	–
CC(=O)c1c(OCCN2CCOCC2)ccc2c(C)cc(=O)oc12	–	30.2 (≈ 10000 µg/mL)	–	inactive	–	–	inactive	inactive	inactive	–	Activity (Bacillus subtilis [11]): inactive; Activity (Bacillus cereus [13]): inactive
CC(=O)c1cc2c(C)cc(=O)oc2cc1OCCN(C(C)C)C(C)C	12.5 (≈ 4320 µg/mL)	37.5 (≈ 13000 µg/mL)	–	inactive	–	12.5 (≈ 4320 µg/mL)	inactive	inactive	inactive	–	–
